The values that follow are results of earlier work, collected in article PMC7001544 (JHEP Reports, 2019).

For data set [1], the system named is NTCP.
In data set [2] the test system is HBV.

As for `Cc1c(C)c2c(c(C)c1O)CCC(C)(COc1ccc(CC3SC(=O)NC3=O)cc1)O2` (centres unmarked) [troglitazone], in data set [1], the “effect on NTCP oligomerization” value was “prevent NTCP oligomerization”. In addition, in data set [2], the “effect on internalization and infection of HBV” value is “interfere with internalization and infection of HBV”.
